In patent US20230293460A1, “METHOD FOR TREATING DERMATITIS” (CHANG GUNG MEMORIAL HOSPITAL, LINKOU, priority 2020, published 2023):

Test system: dermatitis in the hands
Experiment: Example 4: middle-aged patient with dermatitis in the hands
Type: in vivo, human
Details: given together: clobetasol ointment (0.025%) twice a day 21 days, desloratadine 5 mg once a day + hydroxyzine 25 mg twice a day 21 days, cyclosporine 100 mg twice a day 28 days; one patient

Q: `OCCOCCN1CCN(C(c2ccccc2)c2ccc(Cl)cc2)CC1` (centres unmarked) [hydroxyzine] was tested. Which “scaling and chronic inflammation” value did it give?
A: did not improve

Q: With `Clc1ccc2c(c1)CCc1cccnc1C2=C1CCNCC1` [desloratadine] as the molecule, how does the “scaling and chronic inflammation” value read?
A: did not improve
